# Assay results reported in US20220324835A1 (Nurix Therapeutics, Inc., priority 2018, published 2022).
# Legend:
# Type in all cases: cell-based
# [1] = test system: primary human total T-cells; assay: T-cell activation assessed by CD69 expression
# Description: (§1) Peripheral blood mononuclear cells (PBMC) were obtained either: 1) by using Ficoll-Paque™ (GE Healthcare) for separation of peripheral blood hematopoietic cells from buffy coats of healthy human donors; or 2) directly from FeukoPak donations. Total human primary T-cells were isolated from the PMBCs utilizing negative selection with commercial kits following the manufacturer's protocol (Miltenyi Catalog #130-096-535 (i.e., cocktail of antibodies against surface markers CD14, CD15, CD16, CD19, CD34, CD36, CD56, CD123 and CD235a are incubated with the PBMCs before passing the samples by magnetic beads for removal of cells expressing those surface markers) or StemCells Catalog #17951) to yield >95% CD3+ cells as assessed by flow cytometry. For measurement of cell proliferation, cells were labeled with Cell Trace Violet (Invitrogen) following manufacturer's protocol prior to activation by stimulation with anti-CD3 antibody alone or in combination with anti-CD28 antibody. The Cbl-b inhibitor was added to 1×10^5 cells per well at multiple concentrations (e.g., 10 μM, 1.11 μM, or 0.123 μM) with a final DMSO concentration of <0.1%. The plate was incubated for one hour at 37° C. in 5% CO2. Following incubation with the Cbl-b inhibitor, primary human total T-cells were stimulated with either plate bound anti-CD3 antibody (OKT3) alone or plate bound anti-CD3 antibody (OKT3) with soluble anti-CD28 antibody (28.2) (Life Technologies). To prepare plates with plate bound anti-CD3 antibody (OKT3), 96-well round bottom tissue culture plates were coated with 100 μl of anti-CD3 antibody (OKT3) at 10 μg/mL for 4 hours at 37° C. 5% CO2 in phosphate buffered saline (PBS). The plates were washed with PBS prior to adding the cells with or without soluble anti-CD28 antibody (28.2) to each well at a final concentration of 5 μg/mL. Cells were stimulated for 48 hours prior to harvesting the cell free supernatant and staining the cell population for surface marker assessment by flow cytometry. Supernatants were analyzed for cytokine secretion (e.g., GM-CSF, IFNγ and TNFα) by ELISA (R&D Systems, Peprotech or Life Technologies) or Luminex multiplex kits (Procarta Life Technologies) following manufacturer's protocol. Cells were stained with anti-CD69 (BD Biosciences) to assess levels of surface markers of activation. Proliferation was measured by flow cytometry and data was analyzed with FlowJo v7.6.5 or v10. Readouts were reported as fold change over baseline. In some embodiments, baseline was the measurement obtained from total human T-cells stimulated with anti-CD3 antibody alone, wherein the cells were not incubated with a Cbl-b inhibitor. In some embodiments, baseline was the measurement obtained from total human T-cells stimulated with anti-CD3 antibody and anti-CD28 antibody, where the cells were not incubated with a Cbl-b inhibitor.
# (§2) Cbl-b inhibitors were tested to determine their ability to induce or enhance secretion of cytokines from T-cells (e.g., GM-CSF, IFNγ and TNFα) and/or surface expression of cell surface markers on T-cells (e.g., CD69) that is indicative of T-cell activation. Cbl-b inhibitors were also tested to determine their ability to induce or enhance T-cell proliferation. Cbl-b inhibitors were tested for their effects on T-cell activation in the presence of costimulation and where conditions were suboptimal for priming.
# (§3) Readouts for T-cell activation were reported as fold change over baseline. Baseline for this study was the measurement obtained from total human T-cells stimulated with anti-CD3 antibody alone or anti-CD3 antibody in combination with soluble anti-CD28 antibody, where the cells were not incubated with a Cbl-b inhibitor. For T-cells stimulated with anti-CD3/anti-CD28 or with anti-CD3 alone changes greater than 1,2-fold over baseline for % positive CD69 staining and greater than 2-fold over baseline for % total proliferating cells were considered a significant and positive response (Table 4a). […]
# [2] = test system: primary human total T-cells; assay: T-cell activation assessed by cell proliferation (Cell Trace Violet)
# Description: as §1, §2, §3
# [3] = test system: primary human total T-cells; assay: T-cell activation assessed by cytokine secretion (GM-CSF, IFNγ, TNFα)
# Description: as §1, §2, §3
# [4] = CD3/CD28 stimulation, CD4 T-cells, read-out: % CD69+ (CD4)
# [5] = CD3/CD28 stimulation, CD8 T-cells, read-out: % CD69+ (CD8)
# [6] = CD3 alone stimulation, CD4 T-cells, read-out: % CD69+ (CD4)
# [7] = CD3 alone stimulation, CD8 T-cells, read-out: % CD69+ (CD8)
# [8] = CD3/CD28 stimulation, CD4 T-cells, read-out: % CP (cell proliferation) (CD4)
# [9] = CD3/CD28 stimulation, CD8 T-cells, read-out: % CP (cell proliferation) (CD8)
# [10] = CD3 alone stimulation, CD8 T-cells, read-out: % CP (cell proliferation) (CD8)
# [11] = CD3/CD28 stimulation, read-out: GM-CSF secretion
# [12] = CD3/CD28 stimulation, read-out: IFNγ secretion
# [13] = CD3/CD28 stimulation, read-out: TNFα secretion
# [14] = CD3 alone stimulation, read-out: GM-CSF secretion
# [15] = CD3 alone stimulation, read-out: IFNγ secretion
# [16] = CD3 alone stimulation, read-out: TNFα secretion
SMILES,"fold induction at 1.11 µM [1, 4]","fold induction at 10 µM [1, 4]","fold induction at 1.11 µM [1, 5]","fold induction at 10 µM [1, 5]","fold induction at 1.11 µM [1, 6]","fold induction at 10 µM [1, 6]","fold induction at 1.11 µM [1, 7]","fold induction at 10 µM [1, 7]","fold induction at 1.11 µM [2, 8]","fold induction at 10 µM [2, 8]","fold induction at 1.11 µM [2, 9]","fold induction at 10 µM [2, 9]","fold induction at 1.11 µM [2, 10]","fold induction at 10 µM [2, 10]","fold induction at 1.11 µM [3, 11]","fold induction at 1.11 µM [3, 12]","fold induction at 1.11 µM [3, 13]","fold induction at 10 µM [3, 11]","fold induction at 10 µM [3, 12]","fold induction at 10 µM [3, 13]",also measured
"Cn1cnnc1CC1(c2cccc(N3Cc4c(cc(CN5CC(F)C5)cc4C(F)(F)F)C3=O)c2)COC1 [Compound 415, 6-((3-fluoroazetidin-1-yl)methyl)-2-(3-(3-((4-methyl-4H-1,2,4-triazol-3-yl)methyl)oxetan-3-yl)phenyl)-4-(trifluoromethyl)isoindolin-1-one]",1.2 to 1.4,1.4 to 1.6,1.2 to 1.4,1.2 to 1.4,> 1.6,> 1.6,1.2 to 1.4,1.4 to 1.6,> 4,> 4,3.01 to 4,> 4,> 4,> 4,2.01 to 4,3.01 to 4,2.01 to 4,> 4,> 4,2.01 to 4,"fold induction at 1.11 µM [3, 14]: 2.01 to 4; fold induction at 1.11 µM [3, 15]: 2.01 to 3; fold induction at 1.11 µM [3, 16]: 1.51 to 2; fold induction at 10 µM [3, 14]: > 4; fold induction at 10 µM [3, 15]: > 4; fold induction at 10 µM [3, 16]: 1.51 to 2"
"Cn1cnnc1CC1(c2cccc(N3Cc4c(cc(CN5CCC6(CC6)C5)cc4C(F)(F)F)C3=O)c2)COC1 [Compound 520, 6-((5-azaspiro[2.4]heptan-5-yl)methyl)-2-(3-(3-((4-methyl-4H-1,2,4-triazol-3-yl)methyl)oxetan-3-yl)phenyl)-4-(trifluoromethyl)isoindolin-1-one]",> 1.6,> 1.6,1.2 to 1.4,1.2 to 1.4,> 1.6,> 1.6,1.4 to 1.6,1.4 to 1.6,> 4,> 4,> 4,> 4,> 4,> 4,> 4,> 4,2.01 to 4,> 4,> 4,> 4,"fold induction at 1.11 µM [3, 14]: 2.01 to 4; fold induction at 1.11 µM [3, 15]: > 4; fold induction at 1.11 µM [3, 16]: 2.01 to 4; fold induction at 10 µM [3, 14]: > 4; fold induction at 10 µM [3, 15]: > 4; fold induction at 10 µM [3, 16]: 2.01 to 4"
"C[C@H](Cc1nncn1C)c1cccc(N2Cc3c(cc(CN4CC[C@](C)(O)C4)cc3C(F)(F)F)C2=O)c1 [Compound 398, 6-(((S)-3-hydroxy-3-methylpyrrolidin-1-yl)methyl)-2-(3-((R)-1-(4-methyl-4H-1,2,4-triazol-3-yl)propan-2-yl)phenyl)-4-(trifluoromethyl)isoindolin-1-one]",1.4 to 1.6,1.4 to 1.6,1.2 to 1.4,1.2 to 1.4,> 1.6,> 1.6,1.2 to 1.4,1.4 to 1.6,> 4,> 4,3.01 to 4,> 4,> 4,> 4,2.01 to 4,3.01 to 4,2.01 to 4,> 4,> 4,2.01 to 4,"fold induction at 1.11 µM [3, 14]: 2.01 to 4; fold induction at 1.11 µM [3, 15]: < 2; fold induction at 1.11 µM [3, 16]: ≤ 1.5; fold induction at 10 µM [3, 14]: > 4; fold induction at 10 µM [3, 15]: < 2; fold induction at 10 µM [3, 16]: 2.01 to 4"
"Cn1cnnc1CC1(c2cccc(N3Cc4c(cc(CN5CC[C@H](C#N)C5)cc4C(F)(F)F)C3=O)c2)COC1 [Compound 422, (S)-1-((2-(3-(3-((4-methyl-4H-1,2,4-triazol-3-yl)methyl)oxetan-3-yl)phenyl)-3-oxo-7-(trifluoromethyl)isoindolin-5-yl)methyl)pyrrolidine-3-carbonitrile]",1.2 to 1.4,1.4 to 1.6,1.2 to 1.4,1.2 to 1.4,> 1.6,> 1.6,1.2 to 1.4,1.4 to 1.6,> 4,> 4,2.01 to 3,3.01 to 4,3.01 to 4,> 4,2.01 to 4,3.01 to 4,2.01 to 4,> 4,> 4,2.01 to 4,"fold induction at 1.11 µM [3, 14]: 2.01 to 4; fold induction at 1.11 µM [3, 15]: < 2; fold induction at 1.11 µM [3, 16]: ≤ 1.5; fold induction at 10 µM [3, 14]: 2.01 to 4; fold induction at 10 µM [3, 15]: 3.01 to 4; fold induction at 10 µM [3, 16]: 1.51 to 2"
"Cn1cnnc1C(F)(F)[C@](C)(F)c1cccc(N2Cc3c(cc(C(=O)N4CC[C@H](O)C4)cc3C(F)(F)F)C2=O)c1 [Compound 438, 6-((S)-3-hydroxypyrrolidine-1-carbonyl)-2-(3-((R)-1,1,2-trifluoro-1-(4-methyl-4H-1,2,4-triazol-3-yl)propan-2-yl)phenyl)-4-(trifluoromethyl)isoindolin-1-one]",1.2 to 1.4,1.4 to 1.6,≤ 1.2,1.2 to 1.4,1.2 to 1.4,> 1.6,≤ 1.2,1.2 to 1.4,3.01 to 4,> 4,< 2,3.01 to 4,< 2,> 4,1.51 to 2,< 2,≤ 1.5,2.01 to 4,2.01 to 3,2.01 to 4,"fold induction at 1.11 µM [3, 14]: ≤ 1.5; fold induction at 1.11 µM [3, 15]: < 2; fold induction at 1.11 µM [3, 16]: 2.01 to 4; fold induction at 10 µM [3, 14]: 2.01 to 4; fold induction at 10 µM [3, 15]: 2.01 to 3; fold induction at 10 µM [3, 16]: 1.51 to 2"
